Test systems include HOP-62 NSCLC; UACC-62 melanoma; RPMI-8226 leukemia; A498 renal; SN12C renal; SR leukemia; HCT-15 colon; HT29 colon; DLD-1 colon; MDA-N.
Holding throughout (test): growth of human tumour cells (NCI), 48 h

“And” between values parts separate entries of the source, which are not always exact repeats. Equal entries are not always repeated.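 Following 48 hours of exposure in 96-well plates, responses at five concentrations were used to interpolate endpoints linearly. Here, GI50 denotes the concentration required for 50% inhibition of growth. TGI: total growth inhibition.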

With `O=[N+]([O-])c1ccc(C2=Nn3c(nnc3-c3ccc(Cl)cc3)SC2)o1`, the TGI in the assay on HOP-62 NSCLC was determined as 24.9 µM; with UACC-62 melanoma, 25.9 µM; in the assay on RPMI-8226 leukemia it was 6.37 µM; in the assay with A498 renal, 31.3 µM; in the assay with SN12C renal, 23.1 µM; in the assay with SR leukemia, 1.16 µM. The TGI in the assay on HCT-15 colon came out at 5.99 µM; in the assay with HT29 colon it was 11.1 µM; with DLD-1 colon, 4.32 µM; in the assay on MDA-N it was 16.4 µM.

For the molecule `CC1=CCCC2C1(C)CCC(C)C2(C)Cc1cc(O)ccc1O` (stereo unspecified), the GI50 with HOP-62 NSCLC is 15.2 µM; with UACC-62 melanoma, 13 µM; in the assay on SN12C renal it was 13.1 µM; with HCT-15 colon it was 6.04 µM; in the assay on HT29 colon it was 14.2 µM. The TGI with HOP-62 NSCLC was 28.9 µM and 35.7 µM; with UACC-62 melanoma, 28.7 µM and 24.5 µM; in the assay with RPMI-8226 leukemia it was 9.97 µM and 8.53 µM; in the assay on A498 renal, 32.9 µM and 30.3 µM; in the assay on SN12C renal, 29.3 µM and 23.8 µM; with SR leukemia, 24.7 µM. Moreover, the TGI in the assay on HCT-15 colon is 25.8 µM and 23.7 µM; with HT29 colon it was 29.6 µM and 37.1 µM; with DLD-1 colon, 22.2 µM; in the assay on MDA-N it was 25.3 µM.

Regarding `O=C1NC2C(=CC(O)C(O)C2O)c2cc3c(cc21)OCO3` (stereo unspecified), the GI50 was 0.277 µM and 0.191 µM in the assay on HOP-62 NSCLC; 0.266 µM in the assay with UACC-62 melanoma; 0.5 µM and 0.147 µM in the assay on RPMI-8226 leukemia; 0.904 µM and 0.568 µM in the assay with A498 renal; 0.156 µM with SN12C renal; 0.406 µM and 0.216 µM in the assay with HCT-15 colon. Besides, the GI50 with HT29 colon is 0.273 µM; in the assay with DLD-1 colon it was 0.325 µM and 0.217 µM. The TGI was 1.82 µM and 1.84 µM in the assay on HOP-62 NSCLC; 2.56 µM and 1.65 µM with UACC-62 melanoma; 0.908 µM and 1.67 µM in the assay on RPMI-8226 leukemia; 3.64 µM and 2.69 µM in the assay on A498 renal; 2.59 µM and 2.29 µM in the assay on SN12C renal; 0.566 µM with SR leukemia. For the same molecule, the TGI was 9.97 µM and 6.41 µM with HCT-15 colon; 3.58 µM and 5.95 µM in the assay with HT29 colon; 2.11 µM in the assay on DLD-1 colon; 1.22 µM in the assay on MDA-N.

For the molecule `O=C(O)C(C(=O)O)P(=S)(S)c1ccccc1` (stereo unspecified), the TGI with HOP-62 NSCLC, with UACC-62 melanoma, in the assay on RPMI-8226 leukemia, in the assay on A498 renal, in the assay with SN12C renal and in the assay with SR leukemia was above 100 µM throughout. Besides, the TGI with HCT-15 colon, in the assay on HT29 colon, with DLD-1 colon and in the assay with MDA-N was above 100 µM in each case.

As to `CCC(O)C1Cc2c(C)cc3c(c2O1)C(=O)c1ccccc1C3=O` (stereo unspecified), the TGI in the assay with HOP-62 NSCLC is above 100 µM; in the assay with UACC-62 melanoma it was above 100 µM; in the assay on RPMI-8226 leukemia, 68 µM; with A498 renal, 70.3 µM; with SN12C renal it was above 100 µM; in the assay on SR leukemia, above 100 µM. The TGI in the assay with HCT-15 colon, in the assay on HT29 colon and with DLD-1 colon was above 100 µM throughout.

Take `O=C(NC(=O)c1ccccc1[N+](=O)[O-])Nc1ccc(Oc2ncc(Cl)cn2)c([N+](=O)[O-])c1`: the TGI with HOP-62 NSCLC is above 100 µM; in the assay on UACC-62 melanoma it was above 100 µM; in the assay on RPMI-8226 leukemia, above 100 µM; in the assay on A498 renal, 30.3 µM; with SN12C renal, above 100 µM; in the assay on SR leukemia it was above 100 µM. Further, the TGI in the assay with HCT-15 colon is above 95.6 µM; in the assay with HT29 colon, 3.31 µM; with DLD-1 colon, above 100 µM.

(Values after PubChem BioAssay (NCI).)
